Source: patent US9605047B2, “Compositions and methods for treating hypertension” (The Brigham and Women's Hospital, Inc., priority 2012, dated 2017)

Experiments:
[1] = target: T1, ETB cysteinyl thiols (region containing Cys405) (Homo sapiens, UniProt P24530); assay: Western analysis to detect ETB disulfide bond formation in HPAECs; format: cell-based; conditions: aldosterone 10^−7 mol/L 24 h or H2O2 200 μmol/L 20 min
T1 construct: endogenous in cells; host or cells: HPAECs (Lonza)
T1 sequence (P24530 27-442): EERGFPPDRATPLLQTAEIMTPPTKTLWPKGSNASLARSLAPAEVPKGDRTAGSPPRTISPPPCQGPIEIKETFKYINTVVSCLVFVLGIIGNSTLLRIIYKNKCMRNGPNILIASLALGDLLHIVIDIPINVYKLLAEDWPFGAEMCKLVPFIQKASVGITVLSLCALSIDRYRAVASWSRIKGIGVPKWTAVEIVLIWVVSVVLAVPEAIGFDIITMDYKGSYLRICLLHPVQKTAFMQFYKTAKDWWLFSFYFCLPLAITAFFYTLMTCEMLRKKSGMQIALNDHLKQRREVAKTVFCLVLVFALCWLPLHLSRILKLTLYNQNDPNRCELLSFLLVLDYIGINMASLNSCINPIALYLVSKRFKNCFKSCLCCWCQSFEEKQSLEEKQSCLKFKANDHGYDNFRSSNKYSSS
Method: Western analysis to detect ETB disfulfide bond formation. Western analysis to detect ETB disulfide bond formation was performed as described previously.^7 Briefly, protein extracts from cells were lysed in alkylating buffer containing 0.1 M Tris-HCL, pH 6.8, 1% SDS, 100 mM iodoacetamide, and 100 mM N-ethylmaleimide, and sonicated on ice for 5 min followed by a 30-min incubation at 25° C. Alkylated proteins were then precipitated with acetone. Proteins were resuspended in 50 μl of 0.1 M Tris-HCl, pH 7.4, 1% SDS; and disulfides were reduced with 5 mM tris(2-carboxyethyl)phosphine hydrochloride (TCEP). Following a 20-min incubation at 25° C., TCEP was removed with a Micro Bio-Spin™ column 6 (Bio-Rad), and 1% SDS was added to the eluant. The cysteines previously participating in a disulfide bond, now reduced, were labeled with 1 mM polyethylene glycol-conjugated maleimide (molecular mass 10 kDa) (Fluka). After a 1-h incubation at 25° C., proteins were precipitated with acetone, resuspended in 50 μl of non-reducing SDS electrophoresis buffer, and boiled for 10 min. Protein samples were then size-fractionated electrophoretically using SDS-PAGE, and transferred to a polyvinylidene fluoride membrane. […]

Sprague-Dawley rats = assay: Monocrotaline (MCT) induction of PAH versus vehicle control; format: in vivo, rat
Method: (§1) Animal model of PAH. Male Sprague-Dawley rats (age 12-14 weeks; Charles River Laboratories) were handled in accordance with US National Institutes of Health guidelines, and all procedures were approved by the local committee at Brigham and Women's Hospital, Harvard Medical School. All surgeries were performed under ketamine/xylazine anesthesia. For the monocrotaline (MCT) model of PAH, rats were fed standard chow and treated with a 0.5 ml intraperitoneal injection of MCT (50 mg/ml) (Sigma-Aldrich) or 0.9% saline as control. Rats were randomized to spironolactone (25 mg/kg/d) (Henry Schein) or vehicle added to the drinking water. For the prevention study, treatment with spironolactone began immediately following administration of MCT and continued for 23-25 days until hemodynamic and tissue analyses were performed. For the reversal study, a second experiment was performed in which rats were randomized to spironolactone or vehicle that was initiated 14 days following the administration of MCT and continued until hemodynamic and tissue analyses were performed 10 days later.
(§2) Aldosterone and ET-1 levels. […] In selected experiments, cells were pre-treated for 6 h with BQ-788 (1.5 μM) (Sigma-Aldrich) to inhibit the ETB receptor. Aldosterone levels were measured in the medium of cells grown in phenol-free EGM-2 medium supplemented with charcoal-stripped serum, by enzyme immunoassay according to the manufacturer's instructions (Cayman). Results were standardized to cell protein concentration. Levels of aldosterone and ET-1 from plasma and whole lung tissue were measured by enzyme immunoassay according to the manufacturer's instructions (Cayman).
Echocardiography. Transthoracic two-dimensional, M-mode, and Doppler imaging were performed in rats using a Vevo 2010 ultrasonographic system with a 15-MHz transducer. M-mode and Doppler tracings were acquired at a sweep speed of 200 mm/s following optimization of endocardial visualization and spectral display of Doppler profiles as described previously.^3 M-mode measurements of the right ventricular free-wall thickness were measured in the parasternal short-axis view just below the levels of the aortic valve, as described previously and in accordance to recommendations on M-mode measurement of the RV by the American Society of Echocardiography.^4 All studies were performed by a cardiologist and experienced sonographer who was blinded to the treatment group and was responsible for image analysis.
(§3) Right heart catheterization. An incision was made in the anterior triangle of the right neck, and a dissection was performed to expose the right internal jugular vein. A 0.04×0.023 in.-sized polyvinylchloridine catheter with a curved end was flushed with heparinized saline and connected to a Grass pressure transducer and Grass model 79 polygraph. A 4.0-proline suture was used to achieve hemostasis at the distal end of the jugular vein prior to insertion of the catheter. The tube was advanced and RV systolic pressure was recorded, which was assumed to be equal to PASP in the setting of a normal pulmonic valve.^3 All right heart catheterizations were performed within 10 min of echocardiography and both procedures were completed within 30 min.

[2] = tested on: rats with SU-5416/hypoxia-induced PAH; assay: SU-5416/hypoxia-induced PAH, prevention study with eplerenone; format: in vivo, rat; conditions: 21 days
Method: (§4) Sections were stained with a Gomori's Trichrome Staining Kit according to the manufacturer's instruction (Fischer Scientific). Image J™ software (NIH) was used to measure the per cent perivascular collagen deposition of muscularized arterioles with a diameter of 20-50 μm by subtracting the area of the lesser curvature from the greater curvature and dividing by the lesser curvature×100. Collagen was also assessed in tissue sections using Picrosirius Red Stain Kit according to the manufacturer's instruction (Polysciences). Lung sections were visualized under polarized light using an Olympus BX51™ microscope and images were acquired by the Picture Taker™ software package.
as §3
(§5) Left heart catheterization and hemodynamics. Following completion of the right heart catheterization, a deep neck dissection was performed to identify the right carotid artery. Without disrupting the carotid sinus or vagus nerve, a cross-clamp was applied to the proximal and distal aspects of the carotid artery. A high fidelity Millar catheter (Millar Instruments, Inc.) was inserted into the carotid artery, the distal clamp was released, and the catheter was advanced past the aortic arch to record central aortic blood pressure. The catheter was then advanced across the aortic valve and left ventricular end-diastolic pressure (LVEDP) were recorded. Cardiac index (CI) was derived from pressure-volume loop analysis as described previously.^5 The pulmonary vascular resistance index was calculated as [(mean pulmonary artery pressure-LVEDP)/CI)] and systemic vascular resistance index was calculated as [(mean arterial pressure-mean right atrial pressure)/CI].

[3] = tested on: Sprague-Dawley rats with MCT-induced PAH; assay: MCT model of PAH, prevention study (spironolactone started at time of MCT injection); format: in vivo, rat
Method: as §1, §2
NO. metabolites. Nitrite (NO2^−) and nitrate (NO3^−) were measured in cell culture medium containing 2% fetal bovine serum and L-arginine (1 mmol/l) (Sigma-Aldrich) by 1(H)-naphthotriazole fluorescence (Cayman) as previously reported.^1 To measure NO2^− levels in whole lung tissue, lung specimens were harvested from rats and snap frozen in liquid nitrogen. Samples were thawed, homogenized in PBS (pH 7.4), and centrifuged at 14,000×g at 4° C. for 20 min. The supernatant was ultrafiltered using a 30 kDa molecular weight filter (Millpore), and the eluant was used to measure NO2^− levels according to manufacturer's instructions (Cayman).
Lung tissue histology. Rat lung vessels were perfused with saline through the pulmonary artery and inflated with 10% phosphate-buffered formalin at a pressure of 20 cm H2O through the trachea as described previously.^2 After fixation for 24 h at 4° C., the lung tissue was processed and embedded in paraffin using a Hypercenter™ XP System and Embedding Center (Shandon, Pittsburg, Pa.). The paraffin-embedded lung tissue was cut into 5-μm sections. Hematoxylin and eosin staining was performed according to methods published previously.^3 The 3,3′-diaminobenzidine substrate method was used for smooth muscle α-actin immunohistochemical staining. The number of muscularized arteries with a diameter of 20-50 μm located distal to terminal bronchioles were counted in 20 consecutive fields (100×) per section,^2 and the cross-sectional area was assessed using Image J™ software (NIH).
as §4
Echocardiography. […]

[4] = tested on: Sprague-Dawley rats with MCT-induced PAH; assay: MCT model of PAH, reversal study (spironolactone started 14 days after MCT); format: in vivo, rat
Method: as §1, §4, §3, §5

HPAECs [5] = assay: Amplex Red assay of hydrogen peroxide levels in HPAECs; format: cell-based, human; conditions: aldosterone-treated HPAECs coincubated with spironolactone (10 μM), 24 h; n=3
Method: Human pulmonary artery endothelial cells (HPAECs) (Lonza) (male donors) were grown to confluence using phenol-free EGM-2 medium supplemented with 5% fetal bovine serum at 37° C., 5% CO2. Cells were passaged twice-weekly using 0.5% trypsin/EDTA, and experiments were performed on cells from passages 4-10. Aldosterone (Steraloids) and ET-1 (1-100 nM) (Sigma-Aldrich) were dissolved in dimethylsufloxide (10 nmol/L) and deoxygenated water, respectively, which served as vehicle controls. Cells were treated with aldosterone (10^−−10^−7 mol/L) for 24 h and in selected experiments co-incubated with the mineralocorticoid receptor inhibitor spironolactone (10 μM/l) (Sigma-Aldrich).

[6] = tested on: ETB-dependent NO. generation in HPAECs; assay: NO. metabolites (NO2−, NO3−) in ET-1-stimulated HPAECs; format: cell-based, human
Method: Cell culture and treatments. Human pulmonary artery endothelial cells (HPAECs) (Lonza) (male donors) were grown to confluence using phenol-free EGM-2 medium supplemented with 5% fetal bovine serum at 37° C., 5% CO2. Cells were passaged twice-weekly using 0.5% trypsin/EDTA, and experiments were performed on cells from passages 4-10. Aldosterone (Steraloids) and ET-1 (1-100 nM) (Sigma-Aldrich) were dissolved in dimethylsufloxide (10 nmol/L) and deoxygenated water, respectively, which served as vehicle controls. Cells were treated with aldosterone (10^−−10^−7 mol/L) for 24 h and in selected experiments co-incubated with the mineralocorticoid receptor inhibitor spironolactone (10 μM/l) (Sigma-Aldrich).

HPAECs [7] = assay: Aldosterone levels in HPAEC culture medium by enzyme immunoassay; format: cell-based, human; conditions: pioglitazone 50 μM, 24 h
[8] = rats with MCT-induced PAH vs vehicle
[9] = rats with MCT-induced PAH vs vehicle, 25 days
[10] = spironolactone 25 mg/kg/d in MCT-PAH rats
[11] = spironolactone 25 mg/kg/d from day 14

## OO [H2O2, hydrogen peroxide]
[1]
  ETB disulfide bond formation (bands at 70 kDa and 90 kDa): de novo formation of one or two disulfide bonds

## C[C@H]1C(=O)O[C@@H]2CCN3CC=C(COC(=O)[C@](C)(O)[C@]1(C)O)[C@H]23 [MCT, monocrotaline]
Sprague-Dawley rats; MCT rat model of PAH
  increase in plasma ET-1 levels: 3 fold
Sprague-Dawley rats; MCT-treated rats vs vehicle control 0.58±0.05, n=6
  right ventricular (RV) free-wall thickness: 1.1±0.05 mm
Sprague-Dawley rats; MCT-treated rats vs vehicle control 28.3±2.7, right heart catheterization, n=6
  pulmonary artery systolic pressure (PASP): 89.3±5.3 mm Hg
Sprague-Dawley rats; MCT-treated rats vs vehicle control 35.4±2.6, echocardiography, n=6
  pulmonary artery (PA) flow acceleration time (PAAT): 14.1 ± 1.2 ms
Sprague-Dawley rats; [8]
  increase in aldosterone levels in lung tissue: 172%
  increase in aldosterone levels in plasma: 406%
Sprague-Dawley rats; [9]
  increase in ET-1 levels in lung homogenates: 174%
  increase in ET-1 levels in plasma: 286%

## COC(=O)[C@@H]1CC2=CC(=O)CC[C@]2(C)[C@@]23O[C@@H]2C[C@@]2(C)[C@@H](CC[C@@]24CCC(=O)O4)[C@H]13 [eplerenone]
[2]; eplerenone 0.6 mg/1 gm standard chow, n=5
  decrease in perivascular collagen: 67%
[2]; eplerenone in chow
  CI: without significantly influencing
  LVEDP: without significantly influencing
  MAP: without significantly influencing
  SVRi: without significantly influencing
  body weight: without significantly influencing
  heart rate: without significantly influencing
[2]; eplerenone in chow, vs SU-5416/hypoxia 64.6±21.4, p=0.18, n=3-4
  PVRi: 43.9±8.7 mm Hg*min*gm/ml
[2]; eplerenone in chow, vs SU-5416/hypoxia 80.5±4.9, p=0.048, n=5
  PASP: 61.5±6.5 mm Hg

## CC(=O)S[C@@H]1CC2=CC(=O)CC[C@]2(C)[C@H]2CC[C@@]3(C)[C@@H](CC[C@@]34CCC(=O)O4)[C@H]12 [spironolactone]
[3]; [10]
  body weight: without significantly decreasing plasma ET-1 levels or influencing
  left ventricular end-diastolic pressure (LVEDP): without significantly decreasing plasma ET-1 levels or influencing
  mean arterial pressure (MAP): without significantly decreasing plasma ET-1 levels or influencing
  plasma ET-1 levels: without significantly decreasing
[3]; spironolactone 25 mg/kg/d in drinking water, 23-25 days, vs V-treated PAH 89.3±5.2, n=6
  PASP: 69.5±5.4 mm Hg
[3]; spironolactone 25 mg/kg/d vs V-treated rats with PAH, n=4
  decrease in perivascular collagen deposition (Gomori's trichrome): 77%
[3]; spironolactone 25 mg/kg/d, vs V-treated PAH 0.43±0.07, p=0.32, n=5
  RV weight: 0.35±0.04 RV weight/LV septum weight
[3]; spironolactone 25 mg/kg/d, vs V-treated PAH 1.07±0.05, n=6
  RV free-wall thickness: 0.86±0.03 mm
[3]; spironolactone 25 mg/kg/d, vs V-treated PAH 14.1±1.2, n=6
  PAAT: 22.3 ± 2.2 ms
[3]; spironolactone 25 mg/kg/d, vs V-treated PAH 14.3±0.7, n=5
  cross-sectional luminal area of vessels: 35.4±1.9 % cross sectional area
[3]; spironolactone 25 mg/kg/d, vs V-treated PAH 77.7±6.3, n=5
  number of α-actin-stained muscularized distal pulmonary arterioles: 59.7±0.4 muscularized pulmonary arterioles/20 high powered fields
[3]; spironolactone 25 mg/kg/d, vs V-treated PAH 506±86, n=4
  nitrite (NO2^−) in lung tissue specimens: 759±55 μM/μg protein
[4]; [11]
  LVEDP: without changes
  MAP: without changes
  cardiac index (CI): without changes
  heart rate: without changes
  indexed systemic vascular resistance (SVRi): without changes
[4]; spironolactone 25 mg/kg/d from day 14, vs V-treated PAH 35.9±3.2, n=4
  indexed pulmonary vascular resistance (PVRi): 21.5±3.2 mm Hg*min*g/ml
[4]; spironolactone 25 mg/kg/d from day 14, vs V-treated PAH 60.3±5.2, n=6
  PASP: 39.5±4.1 mm Hg
[4]; spironolactone 25 mg/kg/d from day 14 for 10 days vs V-treated PAH, n=6
  decrease in levels of perivascular collagen: 71%
HPAECs [5]
  abrogation of aldosterone-induced H2O2 accumulation: 56%
[6]; coincubation with spironolactone 10 μM, HPAECs
  NO2^− levels in aldosterone-treated, ET-1-stimulated cells: restored
[6]; spironolactone coincubation in aldosterone-treated cells stimulated with ET-1, n=3
  increase in NOx levels: 87%

## CCc1ccc(CCOc2ccc(CC3SC(=O)NC3=O)cc2)nc1 (stereo not drawn) [pioglitazone]
HPAECs [7]
  increase in aldosterone levels compared to V: 365%
